Patent publication US20250026716A1, “SYNTHESIS PROCESS OF FATTY ACYL TAURINE SALT” (ZHANGJIAGANG GREAT CHEMICAL CO., LTD., priority 2021, published 2025)

Tests used:
[1] = tested on: chicken embryo chorioallantoic membrane; assay: Irritancy (stimulus) test, chicken embryo chorioallantoic membrane method
[2] = Foaming performance test (foam volume, mixing method); assay type: physicochemical; conditions: 2 g of sample, 150 mg/kg hard water to 500 mL, stirring 30 s at 1000 rpm
Procedure: For further comparison, foaming performance tests are conducted on products of Examples 12-13 and Comparative Examples 16-17, and the test results are shown in Table 12.

With `CCCCCCCCCCCC(=O)NCCS(=O)(=O)O.[Na]` [Example 2, sodium lauroyl taurine] as the compound, how does the Bleeding time [1] read?
The Bleeding time was 41.5.

What about the IS value [1] of the same compound?
Its IS value is 4.33.

For `CCCCCCCCCCCC(=O)NCCS(=O)(=O)O.[Na]` [Example 12, sodium lauroyl taurine], which Foam volume [2] is on record?
Its Foam volume is 1240 mL.

With `CCCCCCCCCCCC(=O)NCCS(=O)(=O)O.[Na]` [Comparative Example 16, sodium lauroyl taurine, reference compound] as the compound, how does the Foam volume [2] read?
The Foam volume was 860 mL.
